Data as given in US6566064B1, “Method for anticipating sensitivity to medicine for osteoporosis” (Nipro Corporation, priority 1999, dated 2003).
Read-outs that look alike come from different tables or passages of the source.

Experiments:
[1] = system: Japanese females after menopause; experiment: Change in bone mineral density after 6 month administration of a medicine, by VDR/ER/ApoE4 genotype (Reference Example 1); type: in vivo, human; details: for Average therapeutic effect (%) - Anticipated therapeutic effect (%) / Anticipated therapeutic effect value (index of change in bone mineral density) after 6 month administration of a medicine, Average: 6 months; for Anticipated therapeutic effect value (index of change in bone mineral density) after 6 month administration of a medicine, Average: total average on randomly sampled patients, vitamin D 1 μg/day, estrogen 0.312 mg/day, vitamin K2 45 mg/day
Excerpt: In the present invention, the pluralities of remedies for osteoporosis are preferably vitamin D, estrogen, and vitamin K2. Here, the sensitivity to a remedy for osteoporosis means the degree of therapeutic effect of the remedy on osteoporosis. That is, in the case where a medicine A is higher in therapeutic effect than a medicine B in a patient, “the sensitivity of the patient to the medicine A is higher than the sensitivity to the medicine B”. In the present invention, using a change in bone mineral density before and after administration of a medicine as an index of sensitivity, it is defined that the greater the value of “index of change in bone mineral density”−“index of change in anticipated bone mineral density”, the higher is the sensitivity to the medicine.
Blood was collected from 177 Japanese females after menopause randomly selected and blood cells were fractionated and genome DNA was extracted and purified by conventional methods. A VDR gene fragment, an ER gene fragment, and an ApoE gene fragment were separately amplified using the genome DNA as a template and the following primer pairs.
The PCR conditions were denaturation: 94° C., 60 seconds; annealing: 62° C., 60 seconds; elongation: 72° C., 60 seconds (30 cycles) for the VDR gene, denaturation: 94° C., 30 seconds; annealing: 65° C., 30 seconds; elongation: 72° C., 30 seconds (30 cycles) for the ER gene, and denaturation: 94° C., 30 seconds; annealing: 61° C., 40 seconds; elongation: 72° C., 90 seconds (30 cycles) for the ApoE gene. This PCP amplification gave a VDR gene fragment of 7.2 kbp, an ER gene fragment of 1.3 kbp, and an ApoE gene fragment of 244 bp containing polymorphism sites, respectively. After treating a VDR gene amplification reaction mixture with Bsm I, an ER gene amplification reaction mixture with Xba I, and an ApoE gene amplification reaction mixture with Hha I, the reaction mixtures were subjected to agarose gel electrophoresis. In the case where each amplification product was cleaved with the restriction enzyme at the polymorphism site, bands of 4.6 kbp and 2.6 kbp were detected for the VDR amplification product, bands of 900 bp and 400 bp were detected for the ER amplification product, and bands of 72,48, 38, 35, 19, 17, and 15 bp were detected for the ApoE amplification product.
The band of 72 bp was not detected in the case where there is no typE4 (that is, 4(−)). After the electrophoresis, the gels were dyed with ethidium bromide and polymorphisms of the VDR, ER, and ApoE genes were discriminated based on the band patterns and classified into 8 polymorphism groups (Table 3).
(§1) The 177 Japanese females after the polymorphism analysis as described above were each measured for bone mineral density. Then, one of vitamin D, estrogen, and vitamin K2 was administered to the patients for 6 months. The administration amount was 1μg/day for vitamin D, 0.312 mg/day for estrogen, and 45 mg/day for vitamin K2. After 6 months, the bone mineral density was measured again and an index of change in bone mineral density between before and after the administration of a medicine was obtained. A value obtained by subtracting an anticipated value of therapeutic effect of each medicine (total average therapeutic effect on randomly sampled patients; Table 3) from an average index of change in bone mineral density for each genotype was defined as sensitivity to a medicine for each genotype.

[2] = cited from earlier work
[3] = system: Japanese females after menopause; experiment: Change in bone mineral density after administration of a medicine, by VDR/ER/ApoE3 genotype (Reference Example 2); type: in vivo, human
Method: as §1
Blood was collected from 167 Japanese females after menopause randomly selected and blood cells were fractionated and genome DNA was extracted and purified by conventional methods. A VDR gene fragment, an ER gene fragment and an ApoE gene fragment were separately amplified using the genome DNA as a template and the same primer pairs as in Reference Example 1 under the same amplification conditions.
After treating the gene amplification reaction mixtures with a restriction enzyme respectively, the reaction mixtures were subjected to agarose gel electrophoresis. In the case where each amplification product was cleaved with the restriction enzyme at the polymorphism site, bands of 4.6 kbp and 2.6 kbp were detected for the VDR amplification product, bands of 900 bp and 400 bp were detected for the ER amplification product, and bands of 72, 48, 38, 35, 19, 17, and 15 bp were detected for the ApoE amplification product.
To detect ApoE3 type alleles, the amplification products were treated with Hha I, and were subjected to agarose electrophoresis gel. After the electrophoresis, the gels were dyed with ethidium bromide and polymorphisms of the ApoE genes were discriminated based on the band patterns and ApoE3 types identified as a combination of bands as below described.
The 8 polymorphism groups were classified (Table 4).

[4] = VDR genotype A (not cleaved with Apa I) compared with genotype a; cited from earlier work
[5] = DBP genotype group of the GC2-2 type compared with the other groups; cited from earlier work

| Compound | Average therapeutic effect (%) - Anticipated therapeutic effect (%) ([1]; genotype B(+)x(+)4(−)) | Average therapeutic effect (%) - Anticipated therapeutic effect (%) ([1]; genotype B(+)x(−)4(+)) | Average therapeutic effect (%) - Anticipated therapeutic effect (%) ([1]; genotype B(+)x(−)4(−)) | Average therapeutic effect (%) - Anticipated therapeutic effect (%) ([1]; genotype B(−)X(+)4(−)) | Average therapeutic effect (%) - Anticipated therapeutic effect (%) ([1]; genotype B(−)X(−)4(+)) | Average therapeutic effect (%) - Anticipated therapeutic effect (%) ([1]; genotype B(−)X(−)4(−)) | Anticipated therapeutic effect value (index of change in bone mineral density) after 6 month administration of a medicine, Average [1] [%] | Average therapeutic effect (%) - Anticipated therapeutic effect (%) ([3]; genotype B(+)X(+)3(+)) | Average therapeutic effect (%) - Anticipated therapeutic effect (%) ([3]; genotype B(+)X(−)3(+)) | Average therapeutic effect (%) - Anticipated therapeutic effect (%) ([3]; genotype B(−)X(+)3(+)) | Average therapeutic effect (%) - Anticipated therapeutic effect (%) ([3]; genotype B(−)X(−)3(+)) | Average therapeutic effect (%) - Anticipated therapeutic effect (%) ([3]; genotype B(−)X(−)3(−)) | Average therapeutic effect (%) - Anticipated therapeutic effect (%) ([1]; genotype B(−)X(+)4(+)) | Average therapeutic effect (%) - Anticipated therapeutic effect (%) ([3]; genotype B(+)X(−)3(−)) | Average therapeutic effect (%) - Anticipated therapeutic effect (%) ([3]; genotype B(−)X(+)3(−)) | other results |
| --- | --- | --- | --- | --- | --- | --- | --- | --- | --- | --- | --- | --- | --- | --- | --- | --- |
| CC(C)=CCC/C(C)=C/CC/C(C)=C/CC/C(C)=C/CC1=C(C)C(=O)c2ccccc2C1=O [Vitamin K2, vitamin K2] | 1.46 | −0.59 | 1.08 | 0.60 | −2.68 | 0.68 | 0.59 | 3.248 | 1.852 | −0.2083 | −0.8443 | −2.855 | – | – | – | sensitivity to the medicine relative to the other two medicines ([1]; genotypes [B(−) X(−) 4(−)] and [B(+) X(−) 4(−)]): higher than the sensitivity to vitamin D and the sensitivity to estrogen; sensitivity to vitamin K2 ([2]; ApoE4(+) group compared with ApoE4(−) group): significantly lower |
| estrogen | 1.74 | −1.07 | −0.93 | 2.78 | −2.52 | −0.94 | 3.26 | 0.4144 | −0.8961 | 3.741 | −0.07099 | −1.151 | 7.87 | 0.03227 | 4.514 | sensitivity to the medicine relative to the other two medicines ([1]; genotypes [B(−) X(+) 4(−)], [B(−) X(+) 4(+)], [B(+) X(+) 4(−)] and [B(+) X(+) 4(+)]): higher than the sensitivity to vitamin D and the sensitivity to vitamin K2; sensitivity to estrogen ([2]; ER genotype PpXx compared with other genotype groups): significantly higher |
| vitamin D | −1.75 | −0.27 | −0.66 | 0.37 | 0.56 | 0.05 | 1.15 | −0.6927 | 0.02042 | 1.643 | 0.4017 | 1.498 | 0.34 | 2.234 | −3.114 | sensitivity to vitamin D [4]: more sensitive; Average therapeutic effect (%) - Anticipated therapeutic effect (%) ([1]; genotype B(+)x(+)4(+)): 0.46%; sensitivity to the medicine relative to the other two medicines ([1]; genotype [B(−) X(−) 4(+)]): higher than the sensitivity to vitamin K2 and the sensitivity to estrogen; sensitivity to vitamin D [5]: higher in sensitivity; sensitivity to vitamin D ([2]; VDR genotype AAB compared with aabb): significantly lower; Average therapeutic effect (%) - Anticipated therapeutic effect (%) ([3]; genotype B(+)X(+)3(−)): 0.461% |
